Patent US4985445A, “Cancer cell metastasis inhibitors and novel compounds” (Meiji Seika Kaisha, Ltd., priority 1988, dated 1991)

System: B16 subline of high pulmonary metastatic potential
Test: Inhibition of pulmonary metastasis of B16 subline pretreated with compound and injected i.v. into BDF1 mice
Type: in vivo, murine; mouse BDF1
Settings: for Inhibition of metastasis to the lungs (in words): B16 subline, BDF1 mice
Procedure: Based on the method described priviously (Method in Cancer Research, 15, 399-439, 1978), a subline of high metastatic potential (high pulmonary colonization) was selected from murine melanoma B16 by repeating the i.v. transplantation of the tumor cells in BDF1 mice and the isolation of pulmonary metastatic clones.
Evaluation of the metastasis inhibiting activity was performed based on the method described previously (Proc. Natl Acad. Sci. USA, 83, 1752-1756, 1986, Cancer Research, 46, 858-862, 1986).
Firstly, the B16 subline of high metastatic potential was inoculated into Dulbecco's ME medium (DME medium) supplemented with 10% bovine fetal serum and the compound represented by general formula (I) described above was added thereto.
The B16 subline of high pulmonary metastatic potential was inoculated into DME medium supplemented with 10% bovine fetal serum and 30, 100 or 300 μg/ml of N (3-phenylpropyl)-1-deoxynojirimycin was added thereto followed by incubation at 37° C. for 3 days in the presence of 5% CO2.
Inhibition of metastasis was examined in a manner similar to Test Example 2 except that N-(3-phenyl-2-propenyl)-1-deoxy-nojirimycin and N-(3-p-chlorophenyl-3-methyl-2-propenyl)-1-deoxynojirimycin were used instead of N-(3-phenylpropyl)-1-deoxynojirimycin in Test Example 2. In this test example, however, 2.5×10^5 cells each of the B16 subline were transplanted to 3 mice for each group.
The B16 subline of high pulmonary metastatic potential was inoculated into DME medium supplemented with 10% bovine fetal serum and 30 μg/ml of N-(4-phenoxy-trans-2-butenyl)-1-deoxynojirimycin was added thereto followed by incubation at 37° C. for 3 days in the presence of 5% CO2. […] The number of colonies of the B16 subline formed on the surface of and in the lung was counted.
Inhibition of metastasis was examined in a manner similar to Test Example 5 except that N-(2-phenoxyethyl)-1-deoxynojirimycin was used instead of N-(4-phenoxy-trans-2-butenyl)-1-deoxynojirimycin in Test Example 5.
The B16 sibline of high pulmonary metastatic potential was inoculated into DME medium supplemented with 10% bovine fetal serum and 10 μg/ml of D-glucaro-δ-lactam calcium salt was added thereto followed by incubation at 37° C. for 3 days in the presence of 5% CO2. […] The number of the colonies formed on the surface of and in the lung was counted.
Inhibition of metastasis was examined in a manner similar to Test Example 8 except that D-glucaro-δ-lactam methyl ester and D-glucaro-δ-lactam ethyl ester were used instead of D-glucaro-δ-lactam calcium salt in Test Example 8.
The B16 subline of high pulmonary metastatic potential was inoculated into DME medium supplemented with 10% bovine fetal serum and 10 μg/ml of 2,6-di-O-(acetylsalicyloyl)-D-gluco-δ-lactam was added thereto followed by incubation at 37° C. for 3 days in the presence of 5% CO2.
The B16 subline of high pulmonary metastatic potential was inoculated into DME medium supplemented with 10% bovine fetal serum and 30 μg/ml of 6-O-triphenylmethyl-D-gluco-δ-lactam was added thereto followed by incubation at 37° C. for 3 days in the presence of 5% CO2.
The B16 subline of high pulmonary metastatic potential was inoculated into DME medium supplemented with 10% bovine fetal serum and 30 μg/ml of 1-deoxynojirimycin was added thereto followed by incubation at 37° C. for 3 days in the presence of 5% CO2.

Compound	Inhibition of metastasis to the lungs (in words)	Pulmonary Metastasis (Mean ± Standard Deviation) (Table 7, 100 μg/ml, None 86 ± 22.1) [no.]	Pulmonary Metastasis (Mean ± Standard Deviation) (Table 15, 30 μg/ml, 3 mice, None 119 ± 37) [no.]	Pulmonary Metastasis (Mean ± Standard Deviation) (Table 10, 30 μg/ml, None 82 ± 11.2) [no.]
OC[C@@H]1[C@@H](O)[C@H](O)[C@@H](O)CN1CCOc1ccccc1 [N-(2-Phenoxyethyl)-1-deoxynojirimycin, N-(2-phenoxyethyl)-1-deoxynojirimycin]	markedly inhibited	7 ± 2.1		
OC[C@H]1NC[C@H](O)[C@@H](O)[C@@H]1O [1-Deoxynojirimycin, 1-deoxynojirimycin]	the number of colonies on the surface of and in the lungs was markedly inhibited		31 ± 11	
CC(=CCN1C[C@H](O)[C@@H](O)[C@H](O)[C@H]1CO)c1ccc(Cl)cc1 [N-(3-p-chlorophenyl-3-methyl-2-propenyl)-1-deoxynojirimycin]	markedly inhibited			
CCOC(=O)[C@H]1NC(=O)[C@H](O)[C@@H](O)[C@@H]1O [D-Glucaro-δ-lactam ethyl ester, D-glucaro-δ-lactam ethyl ester]	markedly inhibited			13 ± 5.4
